Laboratory results taken from patent US5324725A, “7-fused 2-(piperazinoalkyl) indole derivatives, intermediates and compositions thereof” (Kali-Chemie Pharma GmbH, priority 1991, dated 1994).
Like-named read-outs stand apart in the source and are kept apart here.

Key:
[1] = target: T1, cyclooxygenase (Mus musculus, UniProt P22437); assay: Cyclooxygenase inhibition: release of 6-keto-PGF1 α from zymosan-stimulated mouse peritoneal macrophage cells; assay type: cell-based; settings: 10^-5 mol/l, read-out: In vitro % inhibition effect on the release of 6-keto-PGF1 α
T1 construct: A cell suspension containing peritoneal cells of male mice 8-10 weeks old was obtained; endogenous in cells; host or cells: mouse peritoneal macrophages (male mice 8-10 weeks old), zymosan-stimulated
T1 sequence (P22437 27-602): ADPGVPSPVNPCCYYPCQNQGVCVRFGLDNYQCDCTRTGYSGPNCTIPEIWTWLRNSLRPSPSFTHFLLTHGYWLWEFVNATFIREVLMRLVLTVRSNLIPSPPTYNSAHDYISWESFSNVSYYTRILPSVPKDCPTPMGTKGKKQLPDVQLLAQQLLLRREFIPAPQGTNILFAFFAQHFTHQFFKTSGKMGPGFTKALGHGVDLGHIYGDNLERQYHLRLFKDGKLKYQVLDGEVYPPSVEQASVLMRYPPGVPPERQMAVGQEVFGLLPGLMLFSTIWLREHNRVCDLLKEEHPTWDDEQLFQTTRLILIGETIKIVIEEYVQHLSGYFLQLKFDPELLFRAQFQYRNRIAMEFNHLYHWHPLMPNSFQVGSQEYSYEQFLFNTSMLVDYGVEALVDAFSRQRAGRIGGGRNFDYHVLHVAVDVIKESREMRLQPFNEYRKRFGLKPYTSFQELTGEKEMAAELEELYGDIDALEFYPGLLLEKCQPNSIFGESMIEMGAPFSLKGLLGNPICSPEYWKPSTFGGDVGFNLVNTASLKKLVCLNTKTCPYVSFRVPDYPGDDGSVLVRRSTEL
Source text: 5. In vitro determination of cyclooxygenase inhibition and 5-lipoxygenase inhibition.
After activation of the cell, arachidonic acid contained in cell membranes is metabolized in two ways. Leukotrienes, inter alia leukotriene C4, are formed under the action of the enzyme 5-lipoxygenase (5-LO), and prostanoids are formed under the action of the enzyme cyclooxygenase (CO). In in vitro systems, the metabolites are secreted from the cell.
To investigate the cyclooxygenase-inhibiting and the 5-lipoxygenase-inhibiting properties, the inhibitory effect of the test substances on the biosynthesis of the arachidonic acid derivatives leukotriene C4 (LTC4) and 6-ketoprostaglandin F1 α (6-keto-PGF1 α) is determined in vitro on mouse peritoneal macrophage cells. This was accomplished by determining the LTC4 and 6-keto-PGF1 α contents in a culture medium of mouse peritoneal macrophage cells by zymosan stimulation as described by Scott et al. (J. Exp. Med. 152 (1980), 324-335) and by Fradin et al. (Prostaglandins, 33 (1987), 579-589).
A cell suspension containing peritoneal cells of male mice 8-10 weeks old was obtained in a known manner. A commercially available cell culture solution (RPMI 1640 from Messrs. Gibco) was used to which heparin (I0 international units/ml) and antibiotics were added according to the recipe of Bonney et al. (Biochem. J. 176 (1978) 422-433). The cell suspension was adjusted to a cell concentration of 10^6 cells per ml and distributed uniformly on titer plates containing […] (wells). These were kept for two hours in a humidified incubator filled with air enriched with 7% CO2. Cells not adhering to the titer cell walls were then removed by washing. The remaining macrophage cells adhering to the walls were incubated for about 12 hours in a suspension medium to which 0.1% bovine serum albumin (BSA) were added. The suspension medium was then replaced by a Hanks balanced salt solution (HBSS) containing 10 mM Hepes (hydroxyethyl-piperazinoethanesulfonic acid), to which a 0.1% strength solution of the test substances in aqueous, 1% strength dimethylformamide or only the solvent had been added. After 15 minutes the arachidonic acid metabolism was stimulated by adding 10 particles of zymosan (=glycoproteinmixture, isolated from cell walls of beer yeast, Saccharomyces cerevisiae, manufactured by Sigma Chemical Co., Munich) per titer cell. After 2 hours, samples of each of the supernatant liquids were investigated for their 6-keto-PGF1 α and LTC4 contents by means of an enzyme immunoassay (EIA) carried out by the method of Pradelles et al. (Analytical Chem. 57 (1985), 1170-1173). The determination of LTC4 and the determination of 6-keto-PGF1 α were each carried out in comparison with a comparative scale on suitable dilutions of the samples (1:50 to 1:250 for the LTC4 determination and 1:250 to 1:1250 for the 6-keto-PGF1 α determination). To determine the inhibitory effect of a 10^-5 molar concentration of the compounds, the amount of reference eicosanoids was determined and the inhibitory effect was calculated from this in % inhibition compared to the measurements of the zymosan controls.

[2] = target: T2, histamine (H1) receptor (Cavia porcellus, UniProt P31389); assay: Antihistamine (H1) effect: inhibition of histamine-induced contractions of isolated guinea-pig ileum in vitro; assay type: cell-based, guinea-pig (Dunkin Hartley); settings: histamine 5 × 10^-6 mol/l, test substance 10^-6 mol/l
T2 construct: isolated smooth muscle of the guinea-pig ileum; from tissue; host or cells: isolated ileum segments of Dunkin Hartley guinea-pigs
T2 sequence (P31389 whole entry): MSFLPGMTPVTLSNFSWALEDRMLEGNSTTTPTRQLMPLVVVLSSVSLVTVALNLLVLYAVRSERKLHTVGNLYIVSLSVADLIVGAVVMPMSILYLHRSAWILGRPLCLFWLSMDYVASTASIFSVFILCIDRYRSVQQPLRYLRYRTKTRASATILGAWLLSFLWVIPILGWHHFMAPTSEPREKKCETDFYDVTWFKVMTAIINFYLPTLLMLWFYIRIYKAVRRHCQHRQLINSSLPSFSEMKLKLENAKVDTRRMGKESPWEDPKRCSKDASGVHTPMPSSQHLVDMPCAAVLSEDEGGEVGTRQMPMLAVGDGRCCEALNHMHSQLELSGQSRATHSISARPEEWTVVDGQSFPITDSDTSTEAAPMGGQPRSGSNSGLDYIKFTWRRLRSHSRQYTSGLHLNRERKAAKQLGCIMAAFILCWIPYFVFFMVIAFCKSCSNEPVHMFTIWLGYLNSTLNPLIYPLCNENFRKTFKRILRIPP
Method in brief: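 Dunkin Hartley guinea-pig ileum segments (300-500 g animals) in Krebs-Henseleit, pH 7.4, 5% CO2/95% O2, 1 g tension, isotonic recording. Compound at 10^-6 mol/l for 30 s before histamine 5×10^-6 mol/l; contraction measured over 30 s, repeated 10 min after washout, expressed as % inhibition.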

[3] = after 30 sec., read-out: in vitro (H1) receptor antagonism % inhibitory effect on histamine-induced contractions of the Ileum, after 30 sec.
[4] = after 10 min. (after washing), read-out: in vitro (H1) receptor antagonism % inhibitory effect on histamine-induced contractions of the Ileum, after 10 min.

SMILES | inhibition at 10 µM [1] [%] | inhibition at 1 µM [2, 3] [%] | inhibition at 1 µM [2, 4] [%]
Cc1ccnc(N2CCN(CCc3c(C)n4c5c(cccc35)CCC4c3ccccc3)CC2)c1 (stereo not drawn) [Example 3, 5,6-dihydro-2-methyl-4-phenyl-1-{2-[4-(4-methylpyridine-2-yl)piperazin-1-yl]-ethyl}-4H-pyrrolo[3,2,1-ij]quinoline] | 20 | 15 | 57
Cc1ccc(N2CCN(CCc3c(C)n4c5c(cccc35)CCC4)CC2)nc1 [Example 42] | 76 | 52 | 54
Cc1ccnc(N2CCN(CCc3c(C)n4c5c(ccc(Cl)c35)OCC4)CC2)c1 [Example 35] | 51 | 25 | 78
Cc1ccnc(N2CCN(CCc3c(C)n4c5c(cc(Br)cc35)CCC4)CC2)c1 [Example 9, 8-Bromo-2-methyl-1-{2-[4-(4-methylpyridin-2-yl)piperazin-1-yl]ethyl}-5,6-dihydro-4H-pyrrolo[3,2,1-ij]quinoline] | 19 | 10 | 78
Cc1ccnc(N2CCN(CCc3c(C)n4c5c(cc(C(O)C(C)C)cc35)CCC4)CC2)c1 (stereo not drawn) [Example 19, 5,6-Dihydro-8-(1-hydroxy-2-methylpropyl)-2-methyl-1-{2-[4-(4-methylpyridin-2-yl)piperazin-1-yl]ethyl}-4H-pyrrolo-[3,2,1-ij]quinoline] | 5 | 26 | 83
Cc1ccnc(N2CCN(CCc3c(C)n4c5c(cc(CC(C)C)cc35)CCC4)CC2)c1 [Example 21, 5,6-Dihydro-2-methyl-8-(2-methylpropyl)-1-{2-[4-(4-methylpyridin-2-yl)piperazin-1-yl]ethyl}-4H-pyrrolo[3,2,1-ij]quinoline] | 64 | 9 | 56
Cc1ccnc(N2CCN(CCc3c(C)n4c5c(cc(N)cc35)CCC4)CC2)c1 [Example 20, 8-Amino-5,6-dihydro-2-methyl-1-{2-[4-(4-methylpyridin-2-yl)piperazin-1-yl]ethyl}-4H-pyrrolo[3,2,1-ij]quinoline] | 42 | 27 | 77
Cc1ccnc(N2CCN(CCc3c(CO)n4c5c(cccc35)CCC4)CC2)c1 [Example 16, 5,6-dihydro-2-hydroxymethyl-1-{2-[4-(4-methylpyridin-2-yl)piperazin-1-yl]ethyl}-4H-pyrrolo[3,2,1-ij]quinoline] | 18 | 42 | 55
C=CCCC1CCc2cccc3c(CCN4CCN(c5cc(C)ccn5)CC4)c(C)n1c23 (stereo not drawn) [Example 62] | 64 | 13 | 72
Cc1c(CCN2CCN(c3ccccn3)CC2)c2cccc3c2n1CCC3 [Example 37] | 32 | 24 | 61

Continued, values first:

inhibition at 10 µM [1] [%] | inhibition at 1 µM [2, 3] [%] | inhibition at 1 µM [2, 4] [%] | SMILES
56 | 19 | 88 | Cc1ccnc(N2CCN(CCc3c(C)n4c5c(ccc(C(O)C(C)C)c35)SCC4)CC2)c1 (stereo not drawn) [Example 90]
54 | 16 | 83 | Cc1ccnc(N2CCN(CCc3c(C)n4c5c(ccc(C(=O)C(C)C)c35)SCC4)CC2)c1 [Example 91]
36 | 59 | 93 | CC(=O)c1cc2c3c(c1)c(CCN1CCN(c4cc(C)ccn4)CC1)c(C)n3CCC2 [Example 67]
72 | 10 | 71 | Cc1ccnc(N2CCN(CCc3c(C)n4c5c(cc(C(=O)c6ccccc6)cc35)CCC4)CC2)c1 [Example 66]
